These results are taken from patent US8022043B2, “Ceramide derivatives as modulators of immunity and autoimmunity” (Albert Einstein College of Medicine of Yeshiva University, priority 2004, dated 2011).

One assay deals with NK T hybridoma DN32.D3. Put plainly: Murine NK T cell hybridoma stimulation assay (IL-2 release), RMA-S.mCD1d as APC. The assay is classed as cell-based, mouse. The settings on record: presented by RMA-S/CD1d cells. As to the method:
FIG. 5. […] NK T hybridoma DN32.D3 was cultured with CD1d-transfected RMA-S cells in microtiter plate wells. Each ceramide-like glycolipid was titrated over a concentration range from 0.5-500 nM, and supernatants were harvested after 24 hours for measurement of IL-2 release. Units of activity were calculated as the reciprocal of the concentration of ceramide-like glycolipid required to give a half maximal release of IL-2, and all values were normalized to the activity of KRN7000 (defined as 1 Unit). The dotted line indicates the level of activity for KRN7000. The structures of two ceramide-like glycolipids with markedly elevated activity relative to KRN7000 are shown.
The ability of the compounds to activate NK T cell hybridomas in the presence of various types of cells expressing CD1d reported in FIG. 5A was determined using a murine NK T cell hybridoma stimulation assay. […] Relative potencies of the ceramide-like glycolipids were calculated from the reciprocal effective concentrations at half-maximal response (1/EC50), and expressed as units by normalization to the observed potency for KRN7000.
IL-2 production by NK T hybridoma DN32D3 in response to eight selected ceramide-like glycolipids, was determined using three different cell types as antigen presenting cells. […]

The next assay deals with iNKT cells. Put plainly: In vitro cytokine modulation, murine cell assay system. The format is cell-based. From the text:
The term iNKT cells, as used herein, mean the specific subset of CD1d-dependent T cells that expresses the invariant TCRα chain rearrangement consisting of Vα14-Jα18 in mice, and Vα24-Jα18 in humans. These cells are uniformly reactive to α-galactosylceramides presented by CD1d. These cells are also referred to as “Type 1” NKT cells, and the distinction between the different types of NKT cells and the nomenclature relating to this are summarized in the publication by Godfrey et al., Nat Rev Immunol. 2004 March; 4(3):231-7. Methods for determining cytokine production by iNKT cells in response to CD1d-presented glycolipids for determination of strong or weak agonist activity are described in Yu K O A, Im J S, Molano A, Dutronc Y, Illarionov P A, Forestier C, Fujiwara N, Arias I, Miyake S, Yamamura T, Chang Y-T, Besra G S, Porcelli S A, Modulation of CD1d-restricted NKT cell responses using N-acyl variants of α-galactosylceramides, Proc. Nat. Acad. Sci. (USA), 102:3383-8 (2005), see also Godfrey D I et al., Nat Rev Immunol. 2004 March; 4(3):231-7.

Another assay deals with NK T cells. The assay can be described thus: NK T cell activation screens (Example, FIG. 5 and Table 1). The settings on record: see Example. The assay is classed as cell-based. From the text:
Using these methods, we produced more than 60 novel amino substituted analogues of KRN7000. These were screened in a functional assay that assessed the ability of the compounds to activate NK T cell hybridomas in the presence of various types of cells expressing CD1d, or in the presence of recombinant CD1d proteins bound to the tissue culture plate surface (FIG. 5).

Take `CCCCC/C=C\C/C=C\CCCCCCCCCC(=O)N[C@@H](COC1OC(CO)C(O)C(O)C1O)[C@H](O)[C@H](O)CCCCCCCCCCCCCC` (stereo partly drawn) [DB03-4]: the “potency relative to KRN7000 (IL-2 production)” value with NK T hybridoma DN32.D3 is on record as “extremely enhanced potency”. Besides, in the assay with iNKT cells, the cytokine bias result was “bias towards inducing Type 2 cytokines”. Moreover, the IL-4 induction entry with iNKT cells (in vitro) is reported as “strong inducers of IL-4”. The IFNγ induction entry in the assay on iNKT cells (in vitro, DB03-3: in some murine strains) is on record as “blunted IFNγ”. For the same molecule, in the assay with iNKT cells (murine cell assay system), the “in vitro activity at modulating cytokines” value is reported as “show in vitro activity”. Moreover, the effectiveness of compound result in the assay with NK T cells is “Particularly effective”.
